Assays:
Assay type in all cases: functional, cell-based
[1] = biological target: Transient receptor potential cation channel subfamily V member 1 (Homo sapiens) (UniProt Q8NER1); test: Agonist activity at human TRPV1 expressed HEK293 cells assessed as reduction of capsaicin-induced calcium mobilization at 1 uM; design: scale not given: the % may be the effect or the level left
[2] = biological target: Transient receptor potential cation channel subfamily V member 1 (Homo sapiens) (UniProt Q8NER1); test: Agonist activity at human TRPV1 expressed HEK293 cells assessed as calcium mobilization at 10 uM
[3] = biological target: Transient receptor potential cation channel subfamily V member 1 (Homo sapiens) (UniProt Q8NER1); test: Agonist activity at human TRPV1 expressed HEK293 cells assessed as calcium mobilization at 12 uM

Chain of Transient receptor potential cation channel subfamily V member 1 (Homo sapiens) (Q8NER1 whole entry): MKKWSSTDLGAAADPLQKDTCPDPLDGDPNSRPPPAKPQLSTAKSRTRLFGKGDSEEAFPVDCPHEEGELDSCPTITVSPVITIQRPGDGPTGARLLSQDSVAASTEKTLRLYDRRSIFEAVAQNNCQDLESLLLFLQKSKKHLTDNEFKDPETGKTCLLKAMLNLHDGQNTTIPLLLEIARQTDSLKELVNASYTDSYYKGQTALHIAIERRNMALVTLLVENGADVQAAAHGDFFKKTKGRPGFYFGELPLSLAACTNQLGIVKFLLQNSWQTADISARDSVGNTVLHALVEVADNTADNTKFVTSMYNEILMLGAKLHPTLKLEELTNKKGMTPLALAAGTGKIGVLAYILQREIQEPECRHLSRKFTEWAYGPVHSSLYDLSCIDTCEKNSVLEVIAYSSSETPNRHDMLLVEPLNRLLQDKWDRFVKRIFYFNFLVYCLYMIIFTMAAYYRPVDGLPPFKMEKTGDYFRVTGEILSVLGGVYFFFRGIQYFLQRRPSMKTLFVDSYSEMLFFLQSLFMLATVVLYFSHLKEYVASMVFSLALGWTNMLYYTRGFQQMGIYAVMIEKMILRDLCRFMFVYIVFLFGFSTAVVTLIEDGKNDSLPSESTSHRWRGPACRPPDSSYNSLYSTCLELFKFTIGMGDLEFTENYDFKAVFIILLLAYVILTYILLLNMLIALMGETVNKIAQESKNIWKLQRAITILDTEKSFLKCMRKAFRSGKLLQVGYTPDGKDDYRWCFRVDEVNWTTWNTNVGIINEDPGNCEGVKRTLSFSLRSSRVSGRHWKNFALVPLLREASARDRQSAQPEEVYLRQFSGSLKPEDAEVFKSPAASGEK

SMILES | Activity [1] [%] | Activity [2] [%] | Activity [3] [%]
CCCCC/C=C/C/C=C/CCCCCCCC(=O)N1CCc2cc(O)c(O)cc2C1C (configuration not stated) | 35 | 36 | –
CC/C=C/C/C=C/C/C=C/C/C=C/C/C=C/C/C=C/CCC(=O)N1CCc2cc(O)c(O)cc2C1C (configuration not stated) | 45 | 25 | –
CCCCC/C=C/C/C=C/C/C=C/C/C=C/CCCC(=O)N1CCc2cc(O)c(O)cc2C1C (configuration not stated) | 40 | 55 | –
CCCCC/C=C/C/C=C/CCCCCCCC(=O)N1CCc2cc(OC)c(O)cc2C1C (configuration not stated) | 25 | 11 | –
CCCCC/C=C/C/C=C/C/C=C/C/C=C/CCCC(=O)N1CCc2cc(OC)c(O)cc2C1C (configuration not stated) | 35 | 18 | –
CC/C=C/C/C=C/C/C=C/C/C=C/C/C=C/C/C=C/CCC(=O)N1CCc2cc(OC)c(O)cc2C1C (configuration not stated) | 5 | – | 14

— ChEMBL document CHEMBL1143752, “Fatty acyl amides of endogenous tetrahydroisoquinolines are active at the recombinant human TRPV1 receptor” (Bioorg Med Chem, 2007)
